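Following 48 hours of exposure in 96-well plates, responses at five concentrations were used to interpolate endpoints linearly. GI50 = concentration required for 50% inhibition of growth. TGI marks complete inhibition of growth.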
Tests used:
Assay in all cases: inhibition of tumour cell growth, NCI panel, 48 h
786-0 renal = tested on: 786-0 renal
A498 renal = tested on: A498 renal
A549 NSCLC = tested on: A549 NSCLC
ACHN renal = tested on: ACHN renal
BT-549 breast = tested on: BT-549 breast
CAKI-1 renal = tested on: CAKI-1 renal
CCRF-CEM leukemia = tested on: CCRF-CEM leukemia
COLO 205 colon = tested on: COLO 205 colon
DU-145 prostate = tested on: DU-145 prostate
EKVX NSCLC = tested on: EKVX NSCLC
HCC-2998 colon = tested on: HCC-2998 colon
HCT-116 colon = tested on: HCT-116 colon
HCT-15 colon = tested on: HCT-15 colon
HL-60(TB) leukemia = tested on: HL-60(TB) leukemia
HOP-62 NSCLC = tested on: HOP-62 NSCLC
HOP-92 NSCLC = tested on: HOP-92 NSCLC
HS 578T breast = tested on: HS 578T breast
HT29 colon = tested on: HT29 colon
IGROV1 ovarian = tested on: IGROV1 ovarian
K-562 leukemia = tested on: K-562 leukemia
KM12 colon = tested on: KM12 colon
LOX IMVI melanoma = tested on: LOX IMVI melanoma
M14 melanoma = tested on: M14 melanoma
MDA-MB-231 breast = tested on: MDA-MB-231 breast
MOLT-4 leukemia = tested on: MOLT-4 leukemia
NCI-H23 lung = tested on: NCI-H23 lung
NCI-H460 lung = tested on: NCI-H460 lung
NCI/ADR-RES ovarian = tested on: NCI/ADR-RES ovarian
OVCAR-4 ovarian = tested on: OVCAR-4 ovarian
OVCAR-5 ovarian = tested on: OVCAR-5 ovarian
OVCAR-8 ovarian = tested on: OVCAR-8 ovarian
PC-3 prostate = tested on: PC-3 prostate
RPMI-8226 leukemia = tested on: RPMI-8226 leukemia
RXF 393 renal = tested on: RXF 393 renal
SF-268 CNS = tested on: SF-268 CNS
SF-295 CNS = tested on: SF-295 CNS
SF-539 CNS = tested on: SF-539 CNS
SK-MEL-2 melanoma = tested on: SK-MEL-2 melanoma
SK-MEL-28 melanoma = tested on: SK-MEL-28 melanoma
SK-MEL-5 melanoma = tested on: SK-MEL-5 melanoma
SK-OV-3 ovarian = tested on: SK-OV-3 ovarian
SN12C renal = tested on: SN12C renal
SNB-19 CNS = tested on: SNB-19 CNS
SNB-75 CNS = tested on: SNB-75 CNS
SR leukemia = tested on: SR leukemia
SW-620 colon = tested on: SW-620 colon
TK-10 renal = tested on: TK-10 renal
U251 CNS = tested on: U251 CNS
UACC-257 melanoma = tested on: UACC-257 melanoma
UACC-62 melanoma = tested on: UACC-62 melanoma
UO-31 renal = tested on: UO-31 renal

## N#Cc1ccc2c(c1)C(=O)c1c-2n(CCCN)c(=O)c2cc([N+](=O)[O-])ccc12
786-0 renal
  GI50: 0.61 µM
  TGI: 2.16 µM
A498 renal
  GI50: 1.09 µM
  TGI: 2.44 µM
A549 NSCLC
  GI50: 0.223 µM
  TGI: 2.18 µM
ACHN renal
  GI50: 0.0699 µM
  TGI: 1.18 µM
BT-549 breast
  GI50: 0.847 µM
  TGI: 2.29 µM
CAKI-1 renal
  GI50: 0.0285 µM
  TGI: 1.54 µM
CCRF-CEM leukemia
  GI50: 0.038 µM
  TGI: 0.442 µM
COLO 205 colon
  GI50: 0.518 µM
  TGI: 2.09 µM
DU-145 prostate
  GI50: 0.11 µM
  TGI: 1.41 µM
EKVX NSCLC
  GI50: 0.537 µM
  TGI: 1.93 µM
HCC-2998 colon
  GI50: 0.101 µM
  TGI: 0.447 µM
HCT-116 colon
  GI50: 0.199 µM
  TGI: 1.59 µM
HCT-15 colon
  GI50: 0.411 µM
  TGI: 1.83 µM
HL-60(TB) leukemia
  GI50: 1.37 µM
  TGI: 3.56 µM
HOP-62 NSCLC
  GI50: 0.259 µM
  TGI: 1.79 µM
HOP-92 NSCLC
  GI50: 1.08 µM
  TGI: 2.46 µM
HS 578T breast
  GI50: 1.41 µM
  TGI: 3.41 µM
HT29 colon
  GI50: 0.0718 µM
  TGI: 0.562 µM
IGROV1 ovarian
  GI50: 0.0712 µM
  TGI: 1.24 µM
K-562 leukemia
  GI50: 0.185 µM
  TGI: 3.97 µM
KM12 colon
  GI50: 1.2 µM
  TGI: 3.89 µM
LOX IMVI melanoma
  GI50: 0.0696 µM
  TGI: 1.08 µM
M14 melanoma
  GI50: 0.467 µM
  TGI: 2.08 µM
MDA-MB-231 breast
  GI50: 1.5 µM
  TGI: 3.04 µM
MOLT-4 leukemia
  GI50: 0.0492 µM
NCI-H23 lung
  GI50: 0.353 µM
  TGI: 2.39 µM
NCI-H460 lung
  GI50: 0.0462 µM
  TGI: 1.14 µM
NCI/ADR-RES ovarian
  GI50: 0.359 µM
  TGI: 3.19 µM
OVCAR-4 ovarian
  GI50: 0.0912 µM
  TGI: 0.257 µM
OVCAR-5 ovarian
  GI50: 0.705 µM
  TGI: 1.86 µM
OVCAR-8 ovarian
  GI50: 0.29 µM
  TGI: 3.62 µM
PC-3 prostate
  GI50: 0.317 µM
  TGI: 1.95 µM
RPMI-8226 leukemia
  GI50: 0.099 µM
  TGI: 0.815 µM
RXF 393 renal
  GI50: 0.906 µM
  TGI: 2.22 µM
SF-268 CNS
  GI50: 0.0846 µM
  TGI: 1.51 µM
SF-295 CNS
  GI50: 0.0382 µM
  TGI: 1.49 µM
SF-539 CNS
  GI50: 0.219 µM
  TGI: 1.31 µM
SK-MEL-2 melanoma
  GI50: 0.0534 µM
  TGI: 1.29 µM
SK-MEL-28 melanoma
  GI50: 0.975 µM
  TGI: 2.59 µM
SK-MEL-5 melanoma
  GI50: 0.248 µM
  TGI: 1.35 µM
SK-OV-3 ovarian
  GI50: 0.314 µM
  TGI: 1.92 µM
SN12C renal
  GI50: 0.261 µM
  TGI: 1.82 µM
SNB-19 CNS
  GI50: 0.146 µM
  TGI: 1.54 µM
SNB-75 CNS
  GI50: 0.288 µM
  TGI: 1.24 µM
SR leukemia
  GI50: 0.0184 µM
  TGI: 1.26 µM
SW-620 colon
  GI50: 0.0291 µM
  TGI: 0.568 µM
TK-10 renal
  GI50: 1.74 µM
  TGI: 3.72 µM
U251 CNS
  GI50: 0.0718 µM
  TGI: 0.497 µM
UACC-257 melanoma
  GI50: 0.637 µM
  TGI: 2.43 µM
UACC-62 melanoma
  GI50: 0.109 µM
  TGI: 1.39 µM
UO-31 renal
  GI50: 0.0605 µM
  TGI: 1.44 µM

From PubChem BioAssay (NCI)
